Experimental findings from the Kinase Knowledgebase extract (Sharma et al. 2016) are described below.

A value given as a limit tells only on which side of the number the result lay.

Usually IC50 stands for the midpoint of a concentration-inhibition curve.

The target in the assay is PIK3CD (Human) (UniProt O00329). Kind of assay: Enzyme Assay.
Sequence of PIK3CD (Human) (O00329 whole entry, looked up): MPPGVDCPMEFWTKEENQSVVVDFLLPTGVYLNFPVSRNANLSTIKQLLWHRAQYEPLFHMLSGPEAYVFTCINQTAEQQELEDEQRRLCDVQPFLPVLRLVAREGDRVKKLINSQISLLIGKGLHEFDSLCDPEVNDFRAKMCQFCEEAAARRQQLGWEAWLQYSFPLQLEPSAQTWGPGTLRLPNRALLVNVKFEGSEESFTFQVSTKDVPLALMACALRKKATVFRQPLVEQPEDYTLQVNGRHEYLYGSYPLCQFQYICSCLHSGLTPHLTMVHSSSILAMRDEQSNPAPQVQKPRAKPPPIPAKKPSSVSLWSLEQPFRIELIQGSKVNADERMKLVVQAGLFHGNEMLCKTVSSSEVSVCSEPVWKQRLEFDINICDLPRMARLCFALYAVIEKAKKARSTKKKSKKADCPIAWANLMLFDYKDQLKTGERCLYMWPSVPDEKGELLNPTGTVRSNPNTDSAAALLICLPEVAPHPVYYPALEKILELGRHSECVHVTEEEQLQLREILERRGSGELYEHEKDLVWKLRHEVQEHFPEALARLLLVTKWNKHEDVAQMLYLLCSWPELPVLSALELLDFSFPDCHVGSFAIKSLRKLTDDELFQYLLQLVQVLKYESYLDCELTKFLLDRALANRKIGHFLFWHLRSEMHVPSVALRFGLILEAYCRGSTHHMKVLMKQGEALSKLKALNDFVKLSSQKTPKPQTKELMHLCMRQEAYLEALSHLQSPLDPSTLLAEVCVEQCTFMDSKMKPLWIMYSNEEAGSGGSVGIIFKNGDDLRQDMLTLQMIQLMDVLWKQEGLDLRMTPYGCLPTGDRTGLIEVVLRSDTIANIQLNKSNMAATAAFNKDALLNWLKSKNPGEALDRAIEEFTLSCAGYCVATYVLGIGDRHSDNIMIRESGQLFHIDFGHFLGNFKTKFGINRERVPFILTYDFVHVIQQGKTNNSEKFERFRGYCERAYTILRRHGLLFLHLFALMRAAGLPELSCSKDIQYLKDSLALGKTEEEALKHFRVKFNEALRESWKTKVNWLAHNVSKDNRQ
Take `CCn1c(-c2cnc(C)nc2)nc2c(O[C@H]3CCN(C(=O)N4CC(F)C4)C3)ncnc21`: the IC50 is 5.1 nM.
Compound `CCn1ncc(-c2nc3c(O[C@H]4CCN(C(=O)c5cccn5C)C4)ncnc3n2C)c1C` yielded a half-inhibitory concentration (IC50) of 8.7 nM.
In turn, `CCn1ncc(-c2nc3c(O[C@H]4CCN(C(=O)C5CCc6nnnn65)C4)ncnc3n2C)c1C` (some centres not stated) yielded an IC50 of 23 nM.
`CCn1ncc(-c2nc3c(O[C@H]4CCN(C(=O)C5CCOCC5)C4)ncnc3n2CC)c1C` registered a concentration for half-maximal inhibition (IC50) of under 1 nM.
`CCn1c(-c2cnc(N)c(C(F)(F)F)c2)nc2c(O[C@H]3CCN(C(=O)C4CC4)C3)ncnc21` yielded an IC50 of 1.1 nM.
For `Cc1n[nH]cc1-c1nc2c(O[C@H]3CCN(C(=O)OC(C)(C)C)C3)ncnc2n1C`, the IC50 came out at 13 nM.
As to `CCn1c(-c2cnc(C)nc2)nc2c(O[C@H]3CCN(C(=O)OCCN(C)C)C3)ncnc21`, the IC50 worked out at 38 nM.
As to `CCc1nc(C)c(C(=O)N2CC[C@H](Oc3ncnc4c3nc(-c3cnn(CC)c3C)n4C)C2)o1`, the IC50 stood at 12 nM.
`CCn1ncc(-c2nc3c(S[C@H]4CCN(C(=O)OCC(C)C)C4)ncnc3n2C)c1C`: the IC50 came to 30 nM.
Consider `CCn1c(-c2cnc3[nH]ccc3c2)nc2c(O[C@H]3CCN(C(=O)C4CC4)C3)ncnc21`, for which the IC50 was under 1 nM.
On to `CCn1ncc(-c2nc3c(O[C@H]4CCN(C(=O)c5cc(C(F)(F)F)nn5C)C4)ncnc3n2C)c1C`, for which the IC50 was 26 nM.
The compound `CCC(=O)N1CC[C@H](Oc2ncnc3c2nc(C(F)(F)F)n3CC)C1` came in with a 50% inhibitory concentration (IC50) of 99 nM.
With `CCn1ncc(-c2nc3c(O[C@H]4CCN(c5nncc6ccccc56)C4)ncnc3n2C)c1C`, the IC50 worked out at 17 nM.
For `CCn1ncc(-c2nc3c(O[C@H]4CCN(C(=O)c5cnon5)C4)ncnc3n2C)c1C`, the half-inhibitory concentration (IC50) is 41 nM.
The figure for `CCCn1c(-c2cnn(CC)c2C)nc2c(O[C@H]3CCN(C(=O)CC)C3)ncnc21` is 58 nM.
In turn, `CCn1c(-c2cnc(C)nc2)nc2c(O[C@H]3CN(C(=O)C4CC4)C[C@@H]3O)ncnc21` yielded an IC50 of 17 nM.
For the compound `CCn1c(N2CCC(c3ccccc3)CC2)nc2c(O[C@H]3CCN(C(=O)OC(C)(C)C)C3)ncnc21`, the half-inhibitory concentration (IC50) is 120 nM.
`CCn1c(-c2cnc(OC)c(F)c2)nc2c(O[C@H]3CCN(C(=O)c4cncn4C)C3)ncnc21` returned an IC50 of 1.5 nM.
The figure for `CCn1ncc(-c2nc3c(O[C@H]4CCN(C(=O)Oc5ccc6ccccc6c5)C4)ncnc3n2C)c1C` is 110 nM; for `CCn1c(-c2cnc(C)nc2)nc2c(O[C@H]3CCN(c4ccc(F)cc4)C3)ncnc21` it is 18 nM; for `CCn1ncc(-c2nc3c(O[C@H]4CCN(C(=O)c5cc(C)n(C)n5)C4)ncnc3n2C)c1C` it is 150 nM.
The figure for `CCC(=O)N1CC[C@H](Oc2ncnc3c2nc(Oc2ccc(OC)c(F)c2)n3C)C1` is 120 nM; for `CCn1c(-c2cnc(C)nc2)nc2c(O[C@H]3CCN(c4ccccc4)C3)ncnc21` it is 9.1 nM.
In turn, `CCn1c(-c2cnc(C)c(F)c2)nc2c(O[C@H]3CCN(C(=O)C4CC4)C3)ncnc21` came in with a 50% inhibitory concentration (IC50) of 4.3 nM.
The figure for `CCn1ncc(-c2nc3c(O[C@H]4CCN(C(=O)c5nccn5C)C4)ncnc3n2C)c1C` is 35 nM; for `CCn1c(-c2cnc(OC)c(F)c2)nc2c(O[C@H]3CCN(C(=O)C4CCOCC4)C3)ncnc21` it is under 1 nM; for `CCn1ncc(-c2nc3c(O[C@H]4CCN(C(=O)c5cccc6ccccc56)C4)ncnc3n2C)c1C` it is 67 nM.
With `COc1ncc(-c2nc3c(O[C@H]4CCN(C(=O)OC(C)(C)C)C4)ncnc3n2C)cc1C`, the 50% inhibitory concentration (IC50) came to 2.6 nM.
On to `CCC(=O)N1CC[C@H](Sc2ncnc3c2nc(-c2cnn(CC)c2C)n3C)C1`, for which the IC50 is 11 nM.
`CCn1ncc(-c2nc3c(O[C@H]4CCN(C(=O)C5CC(=O)N(C(C)C)C5)C4)ncnc3n2C)c1C` (some centres not stated) had an IC50 of 10 nM.
As for `CCn1c(-c2cnc(C)nc2)nc2c(OC3CCC(NC(=O)C4CCOCC4)C3)ncnc21` (configuration not stated), the IC50 is 170 nM.
Consider `CCn1ncc(-c2nc3c(OC4CCN(C(=O)C5CCCCC5)C4)ncnc3n2C)c1C` (configuration not stated), for which the IC50 was 22 nM.
In turn, `CCn1ncc(-c2nc3c(OC4CCN(C(=O)c5ccccc5)C4)ncnc3n2C)c1C` (configuration not stated) yielded a concentration for half-maximal inhibition (IC50) of 68 nM.
The value for `CCn1ncc(-c2nc3c(O[C@H]4CCN(C(=O)c5ccnn5C(C)C)C4)ncnc3n2C)c1C` was 23 nM; that for `CCn1c(C(=O)NCC2CC2)nc2c(O[C@H]3CCN(C(=O)OC(C)(C)C)C3)ncnc21` was 150 nM.
`CCn1ncc(-c2nc3c(O[C@H]4CCN(c5ncnc6sc(C)c(C)c56)C4)ncnc3n2C)c1C` registered a half-maximal inhibitory concentration (IC50) of 19 nM.
Turning to `CCCN1CC[C@H](Oc2ncnc3c2nc(-c2cnn(CC)c2C)n3C)C1`, the 50% inhibitory concentration (IC50) stood at 380 nM.
With `CCC(=O)N1CC[C@H](Oc2ncnc3c2nc(C(F)F)n3CC)C1`, the half-maximal inhibitory concentration (IC50) turned out to be 100 nM.
In turn, `CCn1ncc(-c2nc3c(O[C@H]4CCN(C(=O)OC(C)(C)C)C4)ncnc3n2C)c1C` displayed an IC50 of 4.3 nM.
The value for `CCn1c(-c2cnc(OC)c(NS(C)(=O)=O)c2)nc2c(O[C@H]3CCN(C(=O)C4CC4)C3)ncnc21` was under 1 nM; that for `CCn1ncc(-c2nc3c(S[C@H]4CCN(C(=O)c5ccn(C)n5)C4)ncnc3n2C)c1C` was 19 nM.
`CCn1ncc(-c2nc3c(O[C@H]4CCN(S(=O)(=O)c5cn(C)cn5)C4)ncnc3n2C)c1C` had an IC50 of 1500 nM.
The figure for `CCn1c(-c2ccc(OC)nc2)nc2c(O[C@H]3CCN(C(=O)C4CCOCC4)C3)ncnc21` is 1.6 nM; for `CCC(=O)N1CC[C@H](Oc2ncnc3c2nc(-c2ccc4[nH]ccc4c2)n3C)C1` it is 37 nM; for `CCn1ncc(-c2nc3c(O[C@@H]4CC[C@H](NC(=O)OC(C)(C)C)C4)ncnc3n2C)c1C` it is 400 nM.
The figure for `CCC(=O)N1CC[C@H](Oc2ncnc3c2nc(-c2ccc(OC)nc2)n3C)C1` is 10 nM; for `Cc1n[nH]c2ncc(-c3nc4c(O[C@H]5CCN(C(=O)OC(C)(C)C)C5)ncnc4n3C)cc12` it is 4 nM; for `CCn1c(C(=O)NC2CCCCC2)nc2c(O[C@H]3CCN(C(=O)OC(C)(C)C)C3)ncnc21` it is 72 nM.
Compound `CCn1c(C(=O)NCC(F)(F)F)nc2c(O[C@H]3CCC(C(=O)N4CC(OC)C4)C3)ncnc21` (some centres not stated) had a concentration for half-maximal inhibition (IC50) of 9.9 nM.
Take `CCC(=O)N1CC[C@H](Oc2ncnc3c2nc(-c2cnn(CC)c2C)n3C2CC2)C1`: the IC50 is 160 nM.
Take `CCn1ncc(-c2nc3c(O[C@H]4CCN(C(=O)c5cnn6cc[nH]c56)C4)ncnc3n2C)c1C`: the concentration for half-maximal inhibition (IC50) turned out to be 270 nM.
Take `CCn1ncc(-c2nc3c(O[C@H]4CCN(C(=O)c5cn(C)nn5)C4)ncnc3n2C)c1C`: the 50% inhibitory concentration (IC50) stood at 5.2 nM.
For the compound `CCn1ncc(C(=O)N2CC[C@H](Oc3ncnc4c3nc(-c3cnn(CC)c3C)n4C)C2)c1C`, the concentration for half-maximal inhibition (IC50) worked out at 29 nM.
Turning to `CCn1ncc(-c2nc3c(O[C@H]4CCN(C(=O)c5noc(C(C)(C)O)n5)C4)ncnc3n2C)c1C`, the IC50 turned out to be 120 nM.
The value for `CCn1ncc(-c2nc3c(OC4CCN(C(=O)C5CCCC5)CC4)ncnc3n2C)c1C` was 550 nM; that for `CCn1ncc(-c2nc3c(S[C@H]4CCN(C(=O)c5coc(C)n5)C4)ncnc3n2C)c1C` was 25 nM; that for `CCn1c(-c2cnc(C)nc2)nc2c(O[C@H]3CCCN(c4ccccn4)C3)ncnc21` was 73 nM.
The compound `CCn1ncc(-c2nc3c(OC4CCN(C(=O)c5ccccc5)CC4)ncnc3n2C)c1C` displayed an IC50 of 960 nM.
As to `CCn1c(-c2cnc(C)nc2)nc2c(O[C@H]3CCN(C(=O)N4CCC(F)(F)C4)C3)ncnc21`, the IC50 came out at 14 nM.
On to `CCC(=O)N1CC[C@H](Oc2ncnc3c2nc(C2CC2)n3C)C1`, for which the half-maximal inhibitory concentration (IC50) worked out at 580 nM.
As to `Cc1ncc(-c2nc3c(O[C@H]4CCN(C(=O)OC(C)(C)C)C4)ncnc3n2C)cn1`, the IC50 was 99 nM.
`CCC(=O)N1CC[C@H](Oc2ncnc3c2nc(-c2cnn(CC)c2C)n3CC)C1` had an IC50 of 0.6 nM.
`CCn1c(-c2cnc(C)nc2)nc2c(O[C@H]3CCN(c4ccc5cnoc5c4)C3)ncnc21`: the IC50 was 11 nM.
The figure for `CCOC(=O)N1CC[C@H](Sc2ncnc3c2nc(-c2cnn(CC)c2C)n3C)C1` is 37 nM.
The figure for `Cn1c(-c2cn[nH]c2)nc2c(O[C@H]3CCN(C(=O)OC(C)(C)C)C3)ncnc21` is 28 nM; for `CCC(=O)N1CC[C@H](Oc2ncnc3c2nc(-c2cnc(OC)c(C)c2)n3CC)C1` it is 0.5 nM.
For the compound `CCn1ncc(-c2nc3c(O[C@H]4CCN(S(=O)(=O)c5ccc(-c6ccccc6)cc5)C4)ncnc3n2C)c1C`, the IC50 was determined as 4600 nM.
For the compound `CCn1c(N(C)CCOC)nc2c(O[C@H]3CCN(C(=O)OC(C)(C)C)C3)ncnc21`, the IC50 worked out at 920 nM.
As for `CCn1ncc(-c2nc3c(O[C@H]4CCN(C(=O)C5CC(F)(F)C5)C4)ncnc3n2C)c1C`, the IC50 was determined as 13 nM.
The figure for `CCn1c(-c2ccc(OC(F)F)nc2)nc2c(O[C@@H]3CCN(C(=O)C4CC4)C3)ncnc21` is 14 nM; for `CCn1c(-c2ccc(C(F)(F)F)nc2)nc2c(O[C@H]3CCN(C(=O)C4CC4)C3)ncnc21` it is 3 nM; for `CCn1ncc(-c2nc3c(O[C@H]4CCN(c5cc(C(F)(F)F)ccn5)C4)ncnc3n2C)c1C` it is 37 nM.
Compound `Cn1c(-c2ccc3[nH]ncc3c2)nc2c(O[C@H]3CCN(C(=O)OC(C)(C)C)C3)ncnc21` came in with an IC50 of 35 nM.
The figure for `CCn1ncc(-c2nc3c(O[C@H]4CCN(c5ncnc6c5cnn6C)C4)ncnc3n2C)c1C` is 120 nM.
As to `CCn1ncc(-c2nc3c(O[C@H]4CCN(C(=O)OC(C)C)C4)ncnc3n2C)c1C`, the half-inhibitory concentration (IC50) came to 8.1 nM.
For the compound `CCn1ncc(-c2nc3c(O[C@H]4CCN(C(=O)c5oncc5C)C4)ncnc3n2C)c1C`, the IC50 was 5.1 nM.
In turn, `CCn1ncc(-c2nc3c(O[C@H]4CCN(c5ccccn5)C4)ncnc3n2C)c1C` came in with a 50% inhibitory concentration (IC50) of 680 nM.
The value for `CCn1ncc(-c2nc3c(O[C@H]4CC[C@H](NC(=O)OC(C)(C)C)C4)ncnc3n2C)c1C` was 140 nM; that for `CCn1ncc(-c2nc3c(O[C@H]4CCN(C(=O)c5cc6ncccc6[nH]5)C4)ncnc3n2C)c1C` was 1900 nM.
The compound `CCn1ncc(-c2nc3c(O[C@H]4CCN(S(=O)(=O)c5ccc6ccccc6c5)C4)ncnc3n2C)c1C` came in with a half-inhibitory concentration (IC50) of 220 nM.
The value for `CCn1ncc(-c2nc3c(O[C@H]4CCN(C(=O)OC)C4)ncnc3n2C)c1C` was 12 nM.
As to `CCn1ncc(-c2nc3c(O[C@H]4CCN(C(=O)OCc5ccccc5)C4)ncnc3n2C)c1C`, the IC50 is 14 nM.
